Assay results: patent US20090176817A1, “Method of Treatment of Diarrhea-Predominant Irritable Bowel Syndrome in a Subject” (priority 2005, published 2009)

Test system: diarrhea-predominant IBS subjects
Test: Study S241.3.009: weekly diary questions on adequate relief
Type: in vivo, human
Conditions: for Responder rate, adequate relief of abnormal bowel habits / Responder rate, adequate relief of IBS symptoms / Responder rate, adequate relief of abdominal pain/discomfort: monthly LOCF imputation; for Responder rate, adequate relief of abnormal bowel habits / Overall responder rate, adequate relief of IBS symptoms / Overall responder rate, adequate relief of abdominal pain/discomfort / Overall responder rate, adequate relief of abnormal bowel habits / Number of months a subject was a responder: One month (Abdominal pain/discomfort) / Number of months a subject was a responder: One month (Abnormal bowel habits) / Number of months a subject was a responder: One month (IBS symptoms) / Number of months a subject was a responder: Three months (Abdominal pain/discomfort) / Number of months a subject was a responder: Three months (Abnormal bowel habits) / Number of months a subject was a responder: Three months (IBS symptoms) / Number of months a subject was a responder: Two months (Abdominal pain/discomfort) / Number of months a subject was a responder: Two months (Abnormal bowel habits) / Number of months a subject was a responder: Two months (IBS symptoms) / Number of months a subject was a responder: Zero months (Abdominal pain/discomfort) / Number of months a subject was a responder: Zero months (Abnormal bowel habits) / Number of months a subject was a responder: Zero months (IBS symptoms) / Responder rate, adequate relief of IBS symptoms / Responder rate, adequate relief of abdominal pain/discomfort: ITT, 2 mg TID; for Overall responder rate, adequate relief of IBS symptoms / Overall responder rate, adequate relief of abdominal pain/discomfort / Overall responder rate, adequate relief of abnormal bowel habits: 26-week treatment period, observed case; for Number of months a subject was a responder: One month (Abdominal pain/discomfort) / Number of months a subject was a responder: One month (Abnormal bowel habits) / Number of months a subject was a responder: One month (IBS symptoms) / Number of months a subject was a responder: Three months (Abdominal pain/discomfort) / Number of months a subject was a responder: Three months (Abnormal bowel habits) / Number of months a subject was a responder: Three months (IBS symptoms) / Number of months a subject was a responder: Two months (Abdominal pain/discomfort) / Number of months a subject was a responder: Two months (Abnormal bowel habits) / Number of months a subject was a responder: Two months (IBS symptoms) / Number of months a subject was a responder: Zero months (Abdominal pain/discomfort) / Number of months a subject was a responder: Zero months (Abnormal bowel habits) / Number of months a subject was a responder: Zero months (IBS symptoms): monthly LOCF
Procedure: Study S241.3.009 was a Phase III, a double-blind, placebo-controlled, randomized, multinational study to investigate the safety and efficacy of 2 mg TID of cilansetron over 26 weeks in diarrhea-predominant IBS subjects. The study was conducted in 146 multinational study centers. A total of 1307 subjects consented to participate, and 806 subjects were randomized. A total of 792 subjects were analyzed for efficacy and 799 subjects were analyzed for safety. Diagnosis and main criteria for inclusion were IBS subjects satisfying the Rome I criteria (1992); the diarrhea-predominant sub-population of the Rome II criteria; and a minimum abdominal pain/discomfort, stool frequency and consistency determined during the run-in period. Subjects were treated with cilansetron 2 mg tablets given orally TID or matching placebo tablets given orally TID for 26 weeks.
The primary efficacy parameter was the overall response rate for IBS symptoms, based on the weekly question concerning adequate relief of IBS symptoms (abdominal pain/discomfort, abnormal bowel habits) over the 26 weeks period. A responder was a subject who responded “yes” at least 50% of the time during his/her treatment period, with minimum treatment duration of four weeks. The two main secondary efficacy parameters were overall responder rate based on the weekly question on adequate relief of abdominal pain/discomfort and abnormal bowel habits during the 26-week treatment period. The onset of action of cilansetron was also examined using daily diary data (stool frequency, and ratings of urgency and severity) during the initial 8 weeks of trial participation. An additional key secondary efficacy parameter was the number of months (one month equals four weeks) up to six months (24-weeks) that a subject was a responder for IBS symptoms, where a responder was defined as a subject who answered the weekly question with “yes” at least twice for that month. The responder rate for the weekly diary questions on adequate relief at each month and all months, the adequate relief rate, the number of subjects with adequate relief by week, daily diary questions, IBS-QOL scores, and the interruption of activities were also assessed. Safety was evaluated by physical examination, ECG, vital signs, laboratory evaluations, concomitant medications, and AEs.
Studies S24 1.3.OO6, S24 1.3.0 1 1, and S24 1.3.009 used the following efficacy measurements: • The subjects answered the following three questions with “yes” or “no” using a phone diary at the end of each week: • a) During the last week, did you experience adequate relief of your IBS symptoms, such as abdominal pain, abdominal discomfort, abnormal bowel habits? • b) During the last week, did you experience adequate relief of your abdominal pain and/or discomfort? • c) During the last week, did you experience adequate relief of your abnormal bowel habits? • The subjects rated the following symptoms using the phone diary at the end of each day: • abdominal pain/discomfort (five-point scale); • stool consistency (seven-point Bristol Stool Scale); • stool frequency (number of bowel movements each day); • urgency (five-point scale); • straining (yes or no); • feeling of incomplete defecation (yes or no); • bloating or feeling of abdominal distension (five-point scale). • In Studies S241 A006 and S241.3.009, subjects completed the IBS-QOL Survey at Baseline (Day 1) and at the end of treatment. In Study S24 1.3.0 1 1, subjects completed the IBS-QOL Survey at Baseline (Day 1), at the end of the three-month treatment period, and at the end of rerandomized treatment.
In all three pivotal efficacy studies, the primary and main secondary efficacy parameters were based on the weekly diary questions on adequate relief and included the following: • 1. Number of months (one month equals four weeks) that a subject was a responder for the weekly diary questions on adequate relief. […]

**Q.** Which results are given for `Cc1nccn1C[C@H]1CCc2c(c3cccc4c3n2CCC4)C1=O` [Cilansetron, (R)-(−)-4,5,6,8,9,10-hexahydro-10-[(2-methyl-1H-imidazol-1-yl)methyl]-11H-pyrido-[3,2,1-jk]-carbazol-11-one]?
**A.** Responder rate, adequate relief of abnormal bowel habits (Each month of Months 4 to 6): 204 (52) n (%); Overall responder rate, adequate relief of IBS symptoms (Female subjects): 132 (63) n (%); Overall responder rate, adequate relief of abdominal pain/discomfort (Female subjects): 133 (64) n (%); Overall responder rate, adequate relief of abnormal bowel habits (Female subjects): 141 (67) n (%); Number of months a subject was a responder: One month (Abdominal pain/discomfort) (Female subjects, Months 1 to 3): 30 (14) n (%); Number of months a subject was a responder: One month (Abnormal bowel habits) (Female subjects, Months 1 to 3): 25 (12) n (%); Number of months a subject was a responder: One month (IBS symptoms) (Female subjects, Months 1 to 3): 28 (13) n (%); Number of months a subject was a responder: Three months (Abdominal pain/discomfort) (Female subjects, Months 1 to 3): 93 (44) n (%); Number of months a subject was a responder: Three months (Abnormal bowel habits) (Female subjects, Months 1 to 3): 91 (44) n (%); Number of months a subject was a responder: Three months (IBS symptoms) (Female subjects, Months 1 to 3): 82 (39) n (%); Number of months a subject was a responder: Two months (Abdominal pain/discomfort) (Female subjects, Months 1 to 3): 36 (17) n (%); Number of months a subject was a responder: Two months (Abnormal bowel habits) (Female subjects, Months 1 to 3): 49 (23) n (%); Number of months a subject was a responder: Two months (IBS symptoms) (Female subjects, Months 1 to 3): 47 (22) n (%); Number of months a subject was a responder: Zero months (Abdominal pain/discomfort) (Female subjects, Months 1 to 3): 50 (24) n (%); Number of months a subject was a responder: Zero months (Abnormal bowel habits) (Female subjects, Months 1 to 3): 44 (21) n (%); Number of months a subject was a responder: Zero months (IBS symptoms) (Female subjects, Months 1 to 3): 52 (25) n (%); Overall responder rate, adequate relief of IBS symptoms (Male subjects): 102 (55) n (%); Overall responder rate, adequate relief of abdominal pain/discomfort (Male subjects): 106 (57) n (%); Overall responder rate, adequate relief of abnormal bowel habits (Male subjects): 112 (60) n (%); Number of months a subject was a responder: One month (Abdominal pain/discomfort) (Male subjects, Months 1 to 3): 31 (17) n (%); Number of months a subject was a responder: One month (Abnormal bowel habits) (Male subjects, Months 1 to 3): 24 (13) n (%); Number of months a subject was a responder: One month (IBS symptoms) (Male subjects, Months 1 to 3): 27 (15) n (%); Number of months a subject was a responder: Three months (Abdominal pain/discomfort) (Male subjects, Months 1 to 3): 66 (35) n (%); Number of months a subject was a responder: Three months (Abnormal bowel habits) (Male subjects, Months 1 to 3): 74 (40) n (%); Number of months a subject was a responder: Three months (IBS symptoms) (Male subjects, Months 1 to 3): 68 (37) n (%); Number of months a subject was a responder: Two months (Abdominal pain/discomfort) (Male subjects, Months 1 to 3): 34 (18) n (%); Number of months a subject was a responder: Two months (Abnormal bowel habits) (Male subjects, Months 1 to 3): 34 (18) n (%); Number of months a subject was a responder: Two months (IBS symptoms) (Male subjects, Months 1 to 3): 33 (18) n (%); Number of months a subject was a responder: Zero months (Abdominal pain/discomfort) (Male subjects, Months 1 to 3): 55 (30) n (%); Number of months a subject was a responder: Zero months (Abnormal bowel habits) (Male subjects, Months 1 to 3): 54 (29) n (%); Number of months a subject was a responder: Zero months (IBS symptoms) (Male subjects, Months 1 to 3): 58 (31) n (%); Responder rate, adequate relief of IBS symptoms (Month 1): 193 (49) n (%); Responder rate, adequate relief of abdominal pain/discomfort (Month 1): 199 (50) n (%); Responder rate, adequate relief of abnormal bowel habits (Month 1): 214 (54) n (%); Responder rate, adequate relief of IBS symptoms (Month 2): 233 (59) n (%); Responder rate, adequate relief of abdominal pain/discomfort (Month 2): 237 (60) n (%); Responder rate, adequate relief of abnormal bowel habits (Month 2): 245 (62) n (%); Responder rate, adequate relief of IBS symptoms (Month 3): 239 (61) n (%); Responder rate, adequate relief of abdominal pain/discomfort (Month 3): 242 (61) n (%); Responder rate, adequate relief of abnormal bowel habits (Month 3): 251 (64) n (%); Responder rate, adequate relief of IBS symptoms (Month 4): 237 (60) n (%); Responder rate, adequate relief of abdominal pain/discomfort (Month 4): 241 (61) n (%); Responder rate, adequate relief of abnormal bowel habits (Month 4): 245 (62) n (%); Responder rate, adequate relief of IBS symptoms (Month 5): 237 (60) n (%); Responder rate, adequate relief of abdominal pain/discomfort (Month 5): 242 (61) n (%); Responder rate, adequate relief of abnormal bowel habits (Month 5): 247 (63) n (%); Responder rate, adequate relief of IBS symptoms (Month 6): 233 (59) n (%); Responder rate, adequate relief of abdominal pain/discomfort (Month 6): 237 (60) n (%); Responder rate, adequate relief of abnormal bowel habits (Month 6): 243 (62) n (%); Median adequate relief rate, IBS symptoms (Months 1 to 3): 0.58; Median adequate relief rate, abdominal pain/discomfort (Months 1 to 3): 0.58; Median adequate relief rate, abnormal bowel habits (Months 1 to 3): 0.67; Overall responder rate, abdominal pain/discomfort (Months 1 to 3): 56%; Overall responder rate, abnormal bowel habits (Months 1 to 3): 62%; Overall responder rate, IBS symptoms (Months 1 to 3, observed case): 55%; Median adequate relief rate, IBS symptoms (Months 1 to 6): 0.64; Median adequate relief rate, abdominal pain/discomfort (Months 1 to 6): 0.63; Median adequate relief rate, abnormal bowel habits (Months 1 to 6): 0.70; Overall responder rate difference vs placebo across diary questions (Romania): −29% to −8; Overall responder rate difference vs placebo, each diary question (South Africa): −23%
